Source: patent publication US8883504B2, “Cell differentiation suppressing agent, method of culturing cells using the same, culture solution, and cultured cell line” (Asahi Kasei Kabushiki Kaisha, priority 2003, dated 2014)

Key:
Nanog gene = Nanog gene expression level by real time PCR (ES cell differentiation inhibition assay 3); type: cell-based, mouse; details: D3ES cells, 4 μg/mL, 1 day, GAPDH internal standard, FIG. 7
Procedure: For the D3ES cells prepared by the method described in (3) preparation of a mouse ES cell of Example 1, 7.85×10^5 cells were seeded in a 10 cm-diameter cell culture dish coated previously with a 0.1% aqueous gelatin solution to make 10 mL of the ES cell assay medium. The differentiation inhibiting agent B of the present invention in the final concentration of 4 μg/mL or ESGRO in the final concentration of 1×10^3 unit/mL was added to each dish, and culturing was carried out at 37° C. in 5% CO2 incubator for 1 day.
The total RNA was extracted from the ES cell cultured by the method shown in (3) ES cell differentiation inhibition assay 3 as described above by using ISOGEN (K.K. Nippon Gene Corp. Japan made) by the attached method. In this method, the cell was collected in a 15 mL sterilized tube, centrifuged at 1,000 rpm for about 5 minutes by using the table centrifuge (TOMY SEIKO made) to make pellets. The supernatant was removed, the pellets were washed twice with 10 mL of PBS, and then, transferred to a 1.5 mL Eppendorf tube. The pellets were dissolved in 1 ml ISOGENE and left stand at room temperature for 5 minutes and, then, added with 0.2 mL of chloroform (Wako Pure Chemicals), shaken for 15 seconds, and left stand at room temperature for 2 or 3 minutes. Centrifugation was carried out at 4° C. at 10,000 rpm for 15 minutes by using the micro centrifuge (TOMY SEIKO made), 400 μL of the supernatant was transferred to a fresh 1.5 mL Eppendorf tube. 500 μL of isopropanol (Wako Pure Chemicals) was added and the mixture was left stand at room temperature for 10 minutes and, then, was centrifuged at 4° C. at 10,000 rpm for 10 minutes by using the micro centrifuge. The supernatant was removed and, then, 1 mL of a 70% ethanol aqueous solution was added. The mixture was shaken and then was centrifuged at 4° C. at 10,000 rpm for about 5 minutes by using the micro centrifuge. The supernatant was removed and the precipitation was dried and, then, dissolved in 30 μL of distilled water to obtain the total RNA solution.
The cDNA was synthesized by using 2 μg of the total RNA obtained by such the way as the template, using DeoxyribonucleaseI (Amplification Grade) (Invitrogen Corp. made) and SuperScript III First-Strand Synthesis System for RT-PCR (Invitrogen Corp. made, 18080-051) by the attached protocol. In this step, 1 μL of 10× DNaseI Reaction Buffer, 1 μL of 10× DNaseI (all these were of Invitrogen Corp. made) were added to 2 μg of the total RNA to give the total volume of 10 μL by adding distilled water to prepare the reaction solution, and then incubation was carried out at room temperature for 10 minutes. 1 μL of 25 mM EDTA solution was added, and the mixture was heated at 65° C. for 10 minutes and then, cooled to room temperature. 8 μL of the reaction solution was taken out, and 1 μL of […] Oligo(dT) 20 primer and 1 μL of 10 mM dNTP Mix were added, and incubation was carried out at 65° C. for 5 minutes. The reaction solution was placed on ice for 1 minute, and then 2 μL of 10× RT Buffer, 4 μL of 25 mM MgCl2, 2 μL of 0.1 M DTT, 1 μL of RNaseOUT (Invitrogen Corp. made) and 1 μL of SuperScript III RT were added for incubation at 50° C. for 50 minutes. Subsequently, incubation was carried out at 85° C. for 5 minutes, and then the mixture was left stand on ice for 1 min. […] The expression level of the Nanog gene and the glyceraldehyde-3-phosphate dehydrogenase (GAPDH) gene as the internal standard were measured. […]

Oct-3/4 gene = Oct-3/4 gene expression level by real time PCR (ES cell differentiation inhibition assay 2); type: cell-based, mouse; details: D3ES cells, 7 days
Procedure: For the D3ES cells prepared by the method described in (3) preparation of a mouse ES cell of Example 1, 8×10^4 cells were seeded in a 10 cm-diameter cell culture dish coated previously with a 0.1% aqueous gelatin solution to make 10 mL of the ES cell assay medium. 1 mL of the differentiation inhibiting agent A to F, which were dissolved in dimethylsulfoxide (DMSO) or culture medium or their mixture to make 40 μg/mL per each dish, or ESGRO, which was adjusted to make 10^4 unit/mL, was added, and culturing was carried out at 37° C. in 5% […] incubator for 7 days. To the culture medium was added DMSO to make the final concentration 0.1% or lower.
A total RNA was extracted from the ES cells cultured by the method described in (1) ES cell differentiation inhibition assay 2 as described above, by using ISOGEN (K.K. Nippon Gene, Japan made) by the attached method. First, the medium was removed from the dish after the culture, the cells were washed twice with 10 mL of PBS, and dissolved in 1 mL of ISOGENE. After leaving stand at room temperature for 5 minutes, the solution was collected in a 1.5 mL Eppendorf tube. 0.2 mL of chloroform (Wako Pure Chemical Industries made) was added, shaken for 15 seconds and, then, left stand at room temperature for 2 or 3 minutes. The solution was centrifuged at 4° C. at 10000 rpm for 10 minutes by using a micro centrifuge (TOMY SEIKO Corp. made). 400 μL of the supernatant was transferred to a fresh 1.5 mL Eppendorf tube, 500 μL of isopropanol (Wako Pure, Chemical Industries made) was added, and left stand at room temperature for 10 minutes, and, then, centrifuged at 4° C. at 10000 rpm for 10 minutes by using the micro centrifuge. After the supernatant was removed, 1 mL of a 70% aqueous ethanol solution was added followed by shaking and, then, centrifugation was carried out at 4° C. at 10000 rpm for about 5 minutes by using, the micro centrifuge. After the supernatant was removed, a precipitation was dried and dissolved in 30 μL of distilled water to obtain the total RNA solution.
2 μg of the thus obtained total RNA was used as a template to synthesize a cDNA according to the attached protocol by using Deoxyribonuclease I (Amplification Grade)(Invitrogen Corp. made), Oligo(dT) 12-18 primer (Invitrogen Corp. made, 18418-012) and Omniscript reverse transcriptase (QIAGEN Corp, made). Thus, a reaction solution was prepared by adding 1 μL of 10× DNaseI Reaction Buffer, 1 μL of 10× DNaseI (all were made by Invitrogen Corp.) and distilled water to 2 μg of total RNA to make 10 μL in total, and the mixture was incubated at room temperature for 10 minutes. 1 μL of 25 mM EDTA solution was added and heated at 65° C. for 10 minutes. The mixture was cooled to room temperature, and then, 2 μL of 10× Buffer RT, 2 μL of 5 mM dNTP Mix, 2 μL of Oligo(dT) 12-18 primer, 0.25 μL of RNaseOUT (Invitrogen Corp. made, 10777-019) and 1 μL of Omniscript Reverse Transcriptase were added, and RNase-free purified water was added to give the total volume of 20 μL, and the mixture was incubated at 37° C. for 60 minutes to obtain cDNA solution. A portion of the synthesized cDNA obtained in such the way was diluted 5 folds with distilled water, and 2 μL of the solution was used as the template to conduct PCR by using Light Cycler-Fast Start DNA Master SYBR Green I Kit (Roche Diagnostics Corp. made) according to the attached protocol. The expression levels of the Oct-3/4 gene and glyceraldehyde-3-phosphate dehydrogenase (GAPDH) gene as the internal standard were measured. For amplifying the Oct-3/4 gene, sense primer OCT3 up (SEQ ID No.: 1) and antisense primer Oct3 down (SEQ ID No.: 2) were used, and for amplifying the GAPDH gene, sense primer GAPDH up (SEQ ID No.: 3) and antisense primer GAPDH down (SEQ ID No.: 4) were used. The composition of the PCR reaction solution and the reaction condition will be each presented below.

COc1cccc(N=NC(C(N)=O)=C2NC(C)(C)Cc3ccccc32)c1 [D, 2-(3,3-dimethyl-3,4-dihydro-2H-isoquinoline-1-ylidene)-2-(3-methoxy-phenylazo)-acetamide]
expression level of Nanog gene in comparison with medium without agent and medium containing 1,000 units/mL of ESGRO (Nanog gene): increased similarly to the differentiation inhibiting agents B
expression of Oct-3/4 gene in comparison with ES cells cultured in the medium without the differentiation inhibiting agent (Oct-3/4 gene; GAPDH internal standard, FIG. 6): significantly promoted
effect of keeping the expression of the Oct-3/4 gene relative to ESGRO (Oct-3/4 gene; compared with 1,000 units/mL of ESGRO): comparable with 1,000 units/mL of ESGRO
